Source: paper PMC2346451 (PLoS ONE, 2008)

Experiments:
[1] = system: dorsal root ganglion neurons; experiment: Whole-cell patch clamp of acutely isolated dorsal root ganglion neurons; assay type: cell-based, rat
Source text: Dorsal root ganglion neurons from all spinal levels were removed from postnatal day 12 to 20 Sprague Dawley rats and the nerve roots trimmed. Calcium- and magnesium-free (CMF) Hank's solution contained (in mM): 136.9 sodium chloride, 5.4 potassium chloride, 0.34 dibasic sodium orthophosphate, 0.44 monopotassium phosphate, 5.6 glucose, 5 4-(2-hydroxyethyl)-1-piperazineethanesulfonic acid, 0.005% phenol red, pH 7.4. CMF Hank's was used throughout the isolation and enzymatic treatments. The isolated ganglia were treated for 20 minutes at 37°C with 20 U/ml of papain (Worthington Biochemical, Lakewood, NJ) and 5 mM cysteine. The ganglia were then transferred to CMF Hank's with 3 mg/ml collagenase (type I; Worthington) and 4 mg/ml dispase (neutral type II; Roche Applied Science, Indianapolis, IN) for 20 minutes at 37°C. Individual neurons were dispersed by trituration through a fire-polished glass Pasteur pipette in 3 ml of media containing DMEM, 5% horse serum, 10% fetal bovine serum, 1% penicillin/streptomycin, and 100 ng/ml Nerve Growth Factor (7S subunit; Invitrogen). The neurons were preplated in tissue culture-treated Petri dishes for 1 hour when used for electrophysiology (3 hours for calcium imaging), and then plated on poly-L-lysine (1 mg/ml)-coated glass coverslips. Dorsal root ganglion neurons were allowed to settle for 1–2 hours at 37°C before patching or imaging over the next 6 hours.
(§1) Electrophysiological experiments were performed using the whole-cell patch-clamp technique at room temperature. Modified Ringer's solution with low chloride and nominal calcium contained (in mM): 130 sodium hydroxide, 5 potassium chloride, 1 magnesium chloride, 10 sodium 4-(2-hydroxyethyl)-1-piperazineethanesulfonic acid, 10 2-(N-morpholino)ethanesulfonic acid, and 20 glucose (pH 7.4; 310 milli-osmolar). […] 2 mM calcium chloride was included in the external solution where noted. To activate TRPV1, the modified Ringer's solution was made at pH 5 (low pH solution) and the chloride concentration was kept to a minimum to prevent contamination of the TRPV1 currents with acid-activated chloride currents. For recordings from heterologously expressing cells, the internal pipette solution contained (in mM): 125 cesium-Methanesulfonate, 10 cesium (1.2-bis(o-aminophenoxy)ethane-N,N,N',N'-tetraacetic acid, 8 sodium chloride, 4 magnesium adenosine triphosphate, and 10 HEPES (pH 7.2; 290 mOSM; nominal free calcium concentrations). For TRPA1 and dorsal root ganglion recordings, the internal pipette solution contained (in mM): 110 cesium-Methanesulfonate, 0.5 cesium4BAPTA, 8 sodium chloride, 0.2 calcium chloride, 4 magnesium-ATP, 4 sodium-GTP, and 10 4-(2-hydroxyethyl)-1-piperazineethanesulfonic acid (pH 7.2; 290 mOSM; 100 nM free calcium internal). MaxChelator was used to calculate the free calcium concentration (http://www.stanford.edu/cpatton/maxc.html).
(§2) Recordings were obtained using an Axopatch 200B amplifier, Digidata 1322A analog-to-digital converter, and pClamp 8.01 software (Molecular Devices, Union City, CA). Data were low-pass filtered at 2 kHz and digitized at 5 kHz. Borosilicate glass pipettes (World Precision Instruments, Sarasota, FL) were typically 3 MΩ pipette resistance after fire polishing. Cell capacitance was measured for each cell, and access resistance compensated to ∼80%. Recordings were begun ∼5 minutes after initial rupture to ensure initial steady state conditions. Current-voltage (I-V) relations were obtained using a ramp protocol. Voltage ramps (400 ms) from −100 to +40 or +100 mV were applied every 1–2 seconds and the holding potential was either −70 mV or 0 mV (see Figure Legends). A 40 ms step was added at the beginning and end of the ramp (i.e. at −100 mV, +40 mV or +100 mV). Liquid junction potentials were not corrected.

rat TRPV1 (rTRPV1) = rat TRPV1 (rTRPV1) (Rattus norvegicus, UniProt O35433); experiment: Whole-cell patch clamp of rat TRPV1 expressed in HEK-293T cells; assay type: cell-based; conditions: for Activation of TRPV1 current: analyzed at −40 mV and +40 mV; for Decrease of pH 5-evoked TRPV1 current: 300 µM, −40 mV
Chain of rat TRPV1 (rTRPV1) (O35433 whole entry): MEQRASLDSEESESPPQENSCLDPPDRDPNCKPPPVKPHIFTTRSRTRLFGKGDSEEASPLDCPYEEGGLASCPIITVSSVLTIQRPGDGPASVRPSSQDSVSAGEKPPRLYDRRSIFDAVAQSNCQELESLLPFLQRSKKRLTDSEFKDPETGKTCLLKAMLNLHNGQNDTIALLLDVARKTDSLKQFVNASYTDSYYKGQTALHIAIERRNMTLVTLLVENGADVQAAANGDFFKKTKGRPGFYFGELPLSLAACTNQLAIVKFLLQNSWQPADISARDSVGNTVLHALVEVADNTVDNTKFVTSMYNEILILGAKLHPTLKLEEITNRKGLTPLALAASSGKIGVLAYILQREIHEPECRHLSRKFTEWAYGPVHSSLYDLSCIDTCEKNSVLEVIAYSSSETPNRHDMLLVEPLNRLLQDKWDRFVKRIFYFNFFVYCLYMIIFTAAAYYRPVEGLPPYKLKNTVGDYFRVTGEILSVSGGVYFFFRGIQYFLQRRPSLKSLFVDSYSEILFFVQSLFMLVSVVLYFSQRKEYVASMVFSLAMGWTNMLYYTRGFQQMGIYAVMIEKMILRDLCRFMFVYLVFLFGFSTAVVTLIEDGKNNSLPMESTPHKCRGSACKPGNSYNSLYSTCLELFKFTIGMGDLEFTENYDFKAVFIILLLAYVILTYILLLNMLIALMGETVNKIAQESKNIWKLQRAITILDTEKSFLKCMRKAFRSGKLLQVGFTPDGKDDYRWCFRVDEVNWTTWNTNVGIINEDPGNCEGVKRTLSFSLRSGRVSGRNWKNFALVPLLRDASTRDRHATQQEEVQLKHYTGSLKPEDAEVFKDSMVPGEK
Experimental: (§3) Transformed human embryonic kidney-293 (HEK-293T) cells were grown in Dulbecco's modified Eagle's medium (DMEM)+F-12 supplemented with 10% fetal calf serum, and 1% penicillin/streptomycin in 5% CO2 at 37°C. Cells grown to 90% confluence in 35 mm Petri dishes were transiently transfected with plasmid DNA encoding a TRP channel construct (1 µg). Rat TRPV1 (rTRPV1) was cloned into an enhanced green fluorescent protein-containing vector (pTracer-CMV2; Invitrogen, Carlsbad, CA). Chicken TRPV1 (cTRPV1), the chicken rat TRPV1 chimera (crcTRPV1), rat TRPV2 (rTRPV2), mouse TRPV3 (mTRPV3), mouse TRPV4 (mTRPV4), rat TRPM8 (rTRPM8), and rat TRPA1 (rTRPA1), were cloned into pcDNA3 and co-transfected with enhanced green fluorescent protein (0.1 µg) to follow expression. The cTRPV1 and crcTRPV1 clones were kindly provided by Dr. David Julius. Recordings were carried out 24–36 hours after transfection. Cells were split via trypsin EDTA, plated on glass coverslips at 5–10% confluence, and used 2–3 hours later.
as §1, §2
(§4) The dose response curves were fit with the Hill equation, where [drawing 8] and [A] is the concentration of agonist or blocker, N is the Hill coefficient, and KD is the [A] for Imeasured/Imax = 0.5. The term apparent dissociation constant is used in place of the half concentration of excitation and inhibition. […] Averaged data are presented as mean±standard error (S.E.) throughout. Statistical analysis included paired and unpaired Student's t-test comparisons of the data; p values are reported in the text.

rat TRPA1 (rTRPA1) = rat TRPA1 (rTRPA1) (Rattus norvegicus, UniProt Q6RI86); experiment: Whole-cell patch clamp of rat TRPA1 expressed in HEK-293T cells; assay type: cell-based
Chain of rat TRPA1 (rTRPA1) (Q6RI86 whole entry): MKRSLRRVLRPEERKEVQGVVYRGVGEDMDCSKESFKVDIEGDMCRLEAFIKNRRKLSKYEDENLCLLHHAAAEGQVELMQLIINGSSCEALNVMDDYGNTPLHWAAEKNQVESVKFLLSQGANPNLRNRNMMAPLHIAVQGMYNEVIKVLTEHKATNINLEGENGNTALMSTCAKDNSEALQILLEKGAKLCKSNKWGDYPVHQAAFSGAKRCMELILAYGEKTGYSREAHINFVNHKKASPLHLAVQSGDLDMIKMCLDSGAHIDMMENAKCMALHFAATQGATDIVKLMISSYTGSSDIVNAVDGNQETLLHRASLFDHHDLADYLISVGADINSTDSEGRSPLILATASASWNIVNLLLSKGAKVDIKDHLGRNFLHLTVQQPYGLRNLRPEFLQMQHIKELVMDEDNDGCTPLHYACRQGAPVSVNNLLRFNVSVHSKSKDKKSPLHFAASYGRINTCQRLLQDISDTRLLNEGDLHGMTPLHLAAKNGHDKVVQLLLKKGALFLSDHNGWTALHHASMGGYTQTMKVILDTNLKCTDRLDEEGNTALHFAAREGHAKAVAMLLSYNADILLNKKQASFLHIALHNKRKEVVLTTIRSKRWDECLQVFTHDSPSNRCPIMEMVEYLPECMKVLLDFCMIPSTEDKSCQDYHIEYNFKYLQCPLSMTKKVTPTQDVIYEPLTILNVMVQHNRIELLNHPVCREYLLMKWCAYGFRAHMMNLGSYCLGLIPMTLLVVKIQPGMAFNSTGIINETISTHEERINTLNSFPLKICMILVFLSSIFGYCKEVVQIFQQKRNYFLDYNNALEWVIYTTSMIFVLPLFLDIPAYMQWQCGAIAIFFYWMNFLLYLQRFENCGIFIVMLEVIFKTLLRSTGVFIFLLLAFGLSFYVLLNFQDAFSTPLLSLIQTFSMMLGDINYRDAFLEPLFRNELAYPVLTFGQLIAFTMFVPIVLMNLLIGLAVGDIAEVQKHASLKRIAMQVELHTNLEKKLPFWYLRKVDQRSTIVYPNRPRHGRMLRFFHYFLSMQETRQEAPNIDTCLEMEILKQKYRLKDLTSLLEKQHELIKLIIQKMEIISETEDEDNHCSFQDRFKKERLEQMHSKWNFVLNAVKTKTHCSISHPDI
Experimental: as §3, §1, §2, §4

mouse TRPV3 (mTRPV3) = molecular target: T1, mouse TRPV3 (mTRPV3) (Mus musculus, UniProt Q8K424); experiment: Whole-cell patch clamp of mouse TRPV3 expressed in HEK-293T cells; assay type: cell-based
T1 sequence (Q8K424 1-791): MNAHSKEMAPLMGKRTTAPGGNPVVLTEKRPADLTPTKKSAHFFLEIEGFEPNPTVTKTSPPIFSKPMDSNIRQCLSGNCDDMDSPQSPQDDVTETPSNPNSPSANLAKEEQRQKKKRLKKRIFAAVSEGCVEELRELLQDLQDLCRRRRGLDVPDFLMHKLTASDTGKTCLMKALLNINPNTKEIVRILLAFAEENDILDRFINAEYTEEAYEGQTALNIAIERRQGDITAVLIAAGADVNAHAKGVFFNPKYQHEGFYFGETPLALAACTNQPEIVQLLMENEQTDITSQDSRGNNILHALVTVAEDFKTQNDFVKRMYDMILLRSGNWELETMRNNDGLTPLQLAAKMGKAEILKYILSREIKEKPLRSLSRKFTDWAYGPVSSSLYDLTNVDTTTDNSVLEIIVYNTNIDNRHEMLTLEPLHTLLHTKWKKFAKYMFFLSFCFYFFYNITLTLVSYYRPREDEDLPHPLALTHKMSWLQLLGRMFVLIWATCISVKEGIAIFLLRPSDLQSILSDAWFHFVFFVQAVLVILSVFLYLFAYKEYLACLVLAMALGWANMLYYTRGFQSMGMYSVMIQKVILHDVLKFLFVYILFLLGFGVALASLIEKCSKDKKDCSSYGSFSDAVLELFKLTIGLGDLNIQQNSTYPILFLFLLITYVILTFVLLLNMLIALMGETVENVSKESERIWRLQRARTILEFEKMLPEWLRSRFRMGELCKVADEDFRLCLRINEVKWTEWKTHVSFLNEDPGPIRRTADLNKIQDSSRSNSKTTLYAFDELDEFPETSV
Experimental: as §3, §1, §2, §4

rat TRPM8 (rTRPM8) = rat TRPM8 (rTRPM8) (Rattus norvegicus, UniProt Q8R455); experiment: Whole-cell patch clamp of rat TRPM8 expressed in HEK-293T cells; assay type: cell-based
Chain of rat TRPM8 (rTRPM8) (Q8R455 whole entry): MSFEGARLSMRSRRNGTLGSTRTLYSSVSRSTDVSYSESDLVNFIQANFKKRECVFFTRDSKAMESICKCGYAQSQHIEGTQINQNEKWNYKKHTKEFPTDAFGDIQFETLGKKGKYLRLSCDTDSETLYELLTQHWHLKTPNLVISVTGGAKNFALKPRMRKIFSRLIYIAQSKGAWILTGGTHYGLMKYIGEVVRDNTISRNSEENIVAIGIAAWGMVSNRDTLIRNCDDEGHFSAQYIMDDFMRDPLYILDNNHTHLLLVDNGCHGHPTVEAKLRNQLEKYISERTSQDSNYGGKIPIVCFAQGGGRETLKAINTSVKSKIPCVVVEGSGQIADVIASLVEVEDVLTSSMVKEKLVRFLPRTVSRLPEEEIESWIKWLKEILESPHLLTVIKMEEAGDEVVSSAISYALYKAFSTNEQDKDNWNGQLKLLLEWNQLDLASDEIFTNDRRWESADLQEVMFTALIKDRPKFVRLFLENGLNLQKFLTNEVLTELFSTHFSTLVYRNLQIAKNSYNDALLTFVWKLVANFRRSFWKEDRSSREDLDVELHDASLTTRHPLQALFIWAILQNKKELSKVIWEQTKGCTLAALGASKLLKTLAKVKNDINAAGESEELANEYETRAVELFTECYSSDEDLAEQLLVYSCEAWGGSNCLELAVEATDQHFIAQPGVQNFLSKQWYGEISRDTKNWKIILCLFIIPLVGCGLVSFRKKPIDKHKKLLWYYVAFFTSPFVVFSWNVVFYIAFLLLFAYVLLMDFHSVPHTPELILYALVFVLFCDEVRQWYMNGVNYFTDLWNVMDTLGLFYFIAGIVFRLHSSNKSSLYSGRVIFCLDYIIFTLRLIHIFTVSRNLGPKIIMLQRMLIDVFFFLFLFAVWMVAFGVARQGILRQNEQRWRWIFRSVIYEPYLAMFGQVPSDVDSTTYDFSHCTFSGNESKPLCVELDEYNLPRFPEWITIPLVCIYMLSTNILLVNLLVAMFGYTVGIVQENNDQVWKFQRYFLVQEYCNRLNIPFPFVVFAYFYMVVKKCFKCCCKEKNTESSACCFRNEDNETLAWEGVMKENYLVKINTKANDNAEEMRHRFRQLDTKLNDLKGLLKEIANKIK
Experimental: as §3, §1, §2, §4

[2] = after citral inhibition of TRPV1

Compound | Activation of TRPV1 current (rat TRPV1 (rTRPV1)) | Activation of TRPA1 current (rat TRPA1 (rTRPA1)) | Activation of TRPV3 current (mouse TRPV3 (mTRPV3)) | Activation of TRPM8 current (rat TRPM8 (rTRPM8)) | Decrease of pH 5-evoked TRPV1 current (rat TRPV1 (rTRPV1)) | further results
NCCOB(c1ccccc1)c1ccccc1 [2-aminoethyldiphenyl borate, reference compound] |  |  |  |  |  | Potentiation of current by repeated application, representative neuron ([1]; +100 mV): 2.3 fold; Cells with evoked currents among cells in which TRPV1 was inhibited [1, 2]: 27 of 30; Increase of current in cells in which TRPV1 was inhibited [1, 2]: 3±0.4 fold; Potentiation of current by repetitive application ([1]; second responsive population (six of twelve neurons)): 1.7±0.3 fold
CC12CCC(CC1=O)C2(C)C (stereo not drawn) [camphor, reference compound] |  |  |  |  |  | Increase in outward current ([1]; second 2-aminoethyldiphenyl borate responsive population): 1.3 fold
CC(C)=CCC/C(C)=C/C=O [geranial] | weakly activated | weakly activated | weakly activated | weakly activated |  | 
CC(C)=CCC/C(C)=C/CO [geraniol] | weakly activated | weakly activated | weakly activated | weakly activated | 45% | Block of inward TRPA1 current (rat TRPA1 (rTRPA1); 1 mM, −100 mV, n = 9): 70%
CC(C)=CCC/C(C)=C\C=O [neral] | weakly activated | weakly activated | weakly activated | weakly activated |  | 
CC(C)=CCC/C(C)=C\CO [nerol] | weakly activated | weakly activated | weakly activated | weakly activated | 50% | TRPV1 current recovered after washout (rat TRPV1 (rTRPV1); 1 mM, 5 minutes after washout, in 3 of 4 cells): < 1%; inhibition at 1000 µM (rat TRPV1 (rTRPV1); HEK-293T, pH 5, 1 mM, sustained after 5 minutes washout, read-out: Inhibition of pH 5-evoked TRPV1 current): 100%; Increase of TRPA1 current on second application (rat TRPA1 (rTRPA1); 1 mM, −100 mV, n = 4): 2 fold
